Results as given in US5760036A, “Aminediol protease inhibitors” (E. R. Squibb & Sons, Inc., priority 1995, dated 1998).
Where two headings read alike, the source gives them in different places.

Columns and labels:
[1] = test system: RF strain of HIV (CEM-SS cells); experiment: Cell Culture Anti-HIV Activity (cell viability, formazan); assay type: cell-based; conditions: Human immunodeficiency virus 1, CEM-SS, 144 h, CEM-SS cells, RF strain of HIV, multiplicity of infection 0.04, 6 days at 37° C., 450 nm; read-out: HIV (CEM Cells) IC50
Method in brief: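 Half-log compound dilutions added to CEM-SS cells (5000/well) carrying HIV RF (MOI 0.04), 6 days, 37° C. Cell protection measured as formazan from tetrazolium, A450. IC50: drug level restoring infected-cell formazan to 50% of the uninfected untreated control.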

HIV protease = target: T1, HIV protease (Human immunodeficiency virus type 1 group M subtype B, UniProt P04585); experiment: HIV Protease Assay; assay type: biochemical
T1 construct: and purified protease
Method in brief: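 At a single final concentration of 10 μM (4% DMSO), inhibitors were added to a 30-minute, 37° C reaction of purified enzyme with 450 μM H2N-Val-Ser-Gln-Asn-(β-naphthyl-alanine)-Pro-Val-Ile-OH at pH 5.5 (sodium acetate, BSA). Hydrolysis was quantified by reverse-phase HPLC with 220 nm detection after acid quench.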

[2] = pH 5.5, 10 μM inhibitor, 4% DMSO, 450 μM substrate, pH 5.5, 30 minutes at 37° C., RP-HPLC, read-out: HIV Protease % Inhibition at 10 μM
[3] = pH 5.5, read-out: HIV Protease % Inhibition at 10 μM

SMILES | IC50 [1] [µM] | inhibition at 10 µM (HIV protease; [2]) [%] | inhibition at 10 µM (HIV protease; [3]) [%]
CC(C)(C)OC(=O)N[C@@H](Cc1ccccc1)[C@H](O)CNC[C@@H](O)[C@H](Cc1ccccc1)NC(=O)[C@@H](NC(=O)OCc1cnc2ccccc2n1)C(C)(C)C [Compound 311, [S-[1R*,2S*(2S*,3R*)]]-[2.2-Dimethyl-1-[[[3-[[(1,1-dimethylethoxy)carbonyl]amino]-2-hydroxy-4-phenylbutyl]amino]-2-hydroxy-1-(phenylmethyl)-propyl]aminocarbonyl]propyl]carbamic acid, (2-quinoxalinyl)methyl ester] | 0.05 | 100 | –
CC(C)(C)OC(=O)N[C@@H](Cc1ccccc1)[C@H](O)CNC[C@@H](O)[C@H](Cc1ccccc1)NC(=O)OC1(C)CCOC1 (stereo partly drawn) [Compound 314, [1S-(1R*,2S*)]-[Iminobis[2-hydroxy-1-(phenylmethyl)-3,1-propanediyl]]bis[carbamic acid], 1,1-dimethylethyl-3-methyl-3-tetrahydrofuranyl ester] | 0.12 | 100 | –
CC(C)(C)OC(=O)N[C@@H](CCc1ccccc1)[C@H](O)CNC[C@@H](O)[C@H](Cc1ccccc1)NC(=O)OC(C)(C)C [Compound 25, [1S-[1R*,2S*(2S*,3R* )]]-[3-[[3-[[(1,1-Dimethylethoxy)carbonyl]amino]-2-hydroxy-4-phenylbutyl]amino]-2-hydroxy-1-(2-phenylethyl))propyl]carbarmic acid, 1,1-dimethylethyl ester] | 0.53 | – | 98
CC(C)(C)OC(=O)N[C@@H](Cc1ccccc1)[C@H](O)CNC[C@@H](O)[C@H](Cc1ccccc1)NC(=O)C(OCCCc1nc2ccccc2[nH]1)C(C)(C)C (stereo partly drawn) [Compound 238, [1S-[1R*,2S*(2S*,3R*)]]-[3-[[3-[[2-[3-(2-Benzimidazolyl)propoxy]-3,3-dimethyl-1-oxobutyl]amino]-2-hydroxy-4-phenylbutyl]amino]-2-hydroxy-1-(phenylmethyl)propyl]carbamic acid, 1,1-dimethylethyl ester] | 2.3 | 64 | –
CC(C)(C)OC(=O)N[C@@H](Cc1ccccc1)[C@H](O)CNC[C@@H](O)[C@H](Cc1ccccc1)NC(=O)C(NC(=O)OCc1ccccc1)C(F)(F)F (stereo partly drawn) [Compound 328, [1S-[1R*,2S*(2S*,3R*)]]-[2-[[3-[[3-[[(1,1-Dimethylethoxy)carbonyl]amino]-2-hydroxy-4-phenylbutyl]amino]-2-hydroxy-1-(phenylmethyl)propyl]amino]-2-oxo-1-(trifluoromethyl)ethyl]carbamic acid, phenylmethyl ester] | 0.54 | 99 | –
CC(C)(C)OC(=O)N[C@@H](Cc1ccccc1)[C@H](O)CNC[C@@H](O)[C@H](Cc1ccc(OCCc2ccccn2)cc1)NC(=O)OC(C)(C)CO [Compound 282, [1S-[1R*,2S*(2S*,3R*)]]-[3-[[3-[[(1,1-Dimethylethoxy)carbonyl]amino]-2-hydroxy-4-phenylbutyl]amino]-2-hydroxy-1-[[4-[2-(2-pyridinyl)ethoxy]phenyl]methyl]propyl]carbamic acid, 2-hydroxy-1,1-dimethylethyl ester] | 0.06 | 100 | –
CC(C)(C)OC(=O)N[C@@H](Cc1ccccc1)[C@H](O)CNC[C@@H](O)[C@H](Cc1ccccc1)NC(=O)O[C@H]1CCc2ccccc21 [Compound 146, [1S-(1R*,2S*)]-[Iminobis[2-hydroxy-1-(phenylmethyl)-3,1-propanediyl)]biscarbamic acid, 1,1-dimethylethyl(S)-2,3-dihydro-1H-inden-1-yl ester] | ≥ 3 | 98 | –
CC(C)(C)OC(=O)N[C@@H](Cc1ccccc1)[C@H](O)CNC[C@@H](O)[C@H](Cc1ccccc1)NC(=O)OC(C)(C)Cc1ccccc1 [Compound 154, [R-(R*,S*)]-Iminobis[2-hydroxy-1-(phenylmethyl)-3,1-propanediyl)]biscarbamic acid, 1,1-dimethylethyl 1,1-dimethyl-2-phenylethyl ester] | > 1.2 | 96 | –
CC(C)(C)OC(=O)N[C@@H](Cc1ccc(OCCc2ccccn2)cc1)[C@H](O)CNC[C@@H](O)[C@H](Cc1ccccc1)NC(=O)OC(C)(C)CO [Compound 298, [1S-[1R*,2S*(2S*,3R*)]]-[2 Hydroxy-3-[[2-hydroxy-3-[[(2-hydroxy-1,1-dimethylethoxy)carbonyl]amino]-4-phenylbutyl]amino]-1-[[4-[2-(2-pyridinyl)ethoxy]phenyl]methyl]propyl]carbamic acid, 1,1-dimethylethyl ester] | 0.06 | 100 | –
CC(C)[C@H](NC(=O)CCn1[nH]c2ccccc2c1=O)C(=O)N[C@@H](Cc1ccccc1)[C@H](O)CNC[C@@H](O)[C@H](Cc1ccccc1)NC(=O)OC(C)(C)C (relative stereo) [Compound 250, [1R*,2S*(2S*,3R*)]-N^2-[3-(1,3-Dihydro-3-oxo-2H-indazol-2-yl)-1-oxopropyl]-N-[3-[[3-[[(1,1-dimethylethoxy)carbonyl]amino]-2-hydroxy-4-phenylbutyl]amino]-2-hydroxy-1-(phenylmethyl)propyl]-L-valinamide] | 1.5 | 100 | –
CC(C)(C)OC(=O)N[C@@H](Cc1ccccc1)[C@H](O)CNC[C@@H](O)[C@H](Cc1ccc(OCc2ccccc2)cc1)NC(=O)OCc1ccccc1 [Compound 17, [1S-[1R*,2S*(2S*,3R*)]]-[3-[[3-[[(1,1-Dimethylethoxy)carbonyl]amino]2-hydroxy-4-phenylbutyl]amino]-2-hydroxy-1-[[4-(phenylmethoxy)phenyl]methyl]propyl]carbamic acid, phenylmethyl ester] | > 1.5 | 84 | –
CC(C)(C)OC(=O)N[C@@H](Cc1ccccc1)[C@H](O)CNC[C@@H](O)[C@H](Cc1ccccc1)NC(=O)C(O)C(F)(F)F (single isomer, unassigned; isomer a) [Compound 271, [1S-[1R*,2S*(2S*,3R*)]]-[2-Hydroxy-1-(phenylmethyl)-3-[[2-hydroxy-4-phenyl-3-[(3,3,3-trifluoro-2-hydroxy-1-oxopropyl)amino]butyl]amino]-propyl]carbamic acid, 1,1-dimethylethyl ester (isomer A)] | 0.06 | 99 | –
CC(C)[C@H](NC(=O)OCc1ccccc1)C(=O)N[C@@H](Cc1ccccc1)[C@H](O)CNC[C@H](O)[C@H](Cc1ccccc1)NC(=O)OC(C)(C)C [Compound 125, [S-[1R*,2S*(2R*,3R*)]-N-[3-[[3-[[(1,1-Dimethylethoxy)carbonyl]amino]-2-hydroxy-4-phenylbutyl]amino]-2-hydroxy-1-(phenylmethyl)propyl]-N^2 [(phenylmethoxy)carbonyl]-L-valinamide] | > 1.5 | 71 | –
CC(C)(C)OC(=O)N[C@@H](Cc1ccccc1)[C@H](O)CNC[C@@H](O)[C@H](Cc1ccc(OCc2nc3ccccc3o2)cc1)NC(=O)OC(C)(C)C [Compound 242, [1S-[1R*,2S*(2S*,3R*)]]-[3-[[4-[4-[(2-Benzoxazolyl)methoxy]phenyl]-3-[[(1,1-dimethylethoxy)carbonyl]amino]-2-hydroxybutyl]amino]-2-hydroxy-1-(phenylmethyl)propyl]carbamic acid, 1,1-dimethylethyl ester] | 0.11 | 99 | –
CC(C)(O)COc1ccc(C[C@H](NC(=O)OC(C)(C)C)[C@H](O)CNC[C@@H](O)[C@H](Cc2ccccc2)NC(=O)OC(C)(C)C)cc1 [Compound 358, [1S-[1R*,2S*(2S*,3R*)]]-[3-[[3-[[(1,1-Dimethylethoxy)carbonyl]amino]-2-hydroxy-4-[4-(2-hydroxy-2-methylpropoxy)phenyl]butyl]amino]-2-hydroxy-1-(phenylmethyl)propyl]carbamic acid, 1,1-dimethylethyl ester] | 0.1 | – | 99
CC(C)(C)OC(=O)N[C@@H](Cc1ccccc1)[C@H](O)CNC[C@@H](O)[C@H](Cc1ccccc1)NC(=O)OCc1ccccc1 [Compound 45, [R-(R*,S*)]-[Iminobis[2-hydroxy-1-(phenylmethyl)-3,1-propandiyl]biscarbamic acid, 1,1-dimethylethylphenylmethyl ester] | 0.5 | 87 | –
CC(C)[C@H](NC(=O)OCc1ccc2ccccc2n1)C(=O)N[C@@H](Cc1ccccc1)[C@H](O)CNC[C@@H](O)[C@H](Cc1ccccc1)NC(=O)OC(C)(C)C (relative stereo) [Compound 281, [1R*,2S*(2S*,3R*)]]-N-[3-[[1,1-Dimethylethoxy)carbonyl]amino]-2-hydroxy-4-phenylbutyl]amino]-2-hydroxy-1-(phenylmethyl)-proyl]-N^2-[(2-quinolinylmethoxy)carbonyl]-L-valinamide] | 0.29 | 100 | –
CC(C)(C)OC(=O)N[C@@H](Cc1ccccc1)[C@H](O)CNC[C@@H](O)[C@H](Cc1ccccc1)NC(=O)[C@@H](NC(=O)CNC=O)C(C)(C)C (relative stereo) [Compound 286, [1R*,2S*(2S*,3R*)]-N-[3-[[(1,1-Dimethylethoxy)carbonyl]amino]-2-hydroxy-4-phenylbutyl]amino]-2-hydroxy-1-(phenylmethyl)propyl]-N^2-(N-formylglycyl)-3-methyl-L-valinamide] | 5 | 99 | –
